Source: patent US20070207957A1, “Composition For Accelerating Alcohol Metabolism Or Relieving Fatigue By Gluconeogenesis” (Kirin Beer Kabushiki Kaisha, priority 2004, published 2007)
Read-outs that look alike come from different tables or passages of the source.

Columns and labels:
[1] = Blood ethanol level in rats, caffeine+serine administered before ethanol; format: in vivo, Wistar rats; settings: 20 mg/kg caffeine and/or 0.1 g/kg serine orally 1 h before ethanol 2 g/kg, blood 1, 2, 3 and 5 hours, vs water control
Protocol: Four groups were prepared in total as follow. A control group of rats (n=6) was prepared by orally administering water. […] . […] Blood was taken from the cervical vein 1, 2, 3 and 5 hours after the administration. Immediately upon taking, the blood was mixed well with a solution containing 0.6N perchlorate and 0.9% NaCl, and centrifugally separated at 3000 rpm for 20 minutes to remove protein. The ethanol concentration of the supernatant was measured with a gas chromatograph manufactured by Shimazu Corporation (Eriksson C J P et al., Anal. Biochem. Vol. 125, 259-263 (1982)).

[2] = Blood glucose level in rats after caffeine administration; settings: 100 mg/kg body weight caffeine orally, plasma two hours later, vs water control
[3] = rats; 20 mg/kg caffeine and/or 0.1 g/kg tryptophan 1 h before ethanol; blood two hours after ethanol
Protocol: One hour later, ethanol was administered. After further two hours, blood was taken from the aorta abdominalis under anesthesia with pentobarbital (Sigma).

[4] = mice; Kakuda T et al. 1996; cited from earlier work
[5] = Recovery from hypoglycemia at the time of fatigue (swimming mice); format: in vivo, Balb/c mice; settings: exhausted mice; 80 mg/kg caffeine and/or 200 mg/kg serine orally; vs water control
Protocol: A swimming experiment of male Balb/c mice (Japan SLC) was performed under flowing water by use of a flowing-water vessel (developed by Matsumoto in Kyoto University). The mice (4 weeks old) were allowed to swim once in two different days at a flow rate of about 4.5 L/min (about 16 cm/sec) for 15 to 20 minutes to allow the mice to get use to the swimming environment. On the next week, these mice (5 weeks old) were fasted for 3 hours. After that, blood was taken from the tail and blood glucose level was measured by GLUTESTACE (Sanwa Kagaku Kenkyusho Co., Ltd.). Immediately after this, the mice were allowed to swim at a flow rate of about 5.5 L/min (about 19 cm/sec), in an intermittent manner. Intermittent swim was performed repeating a cycle consisting of 10-minute swim and 10-minute rest, twice, and then repeating a cycle consisting of 5-minute swim and 10-minute rest until the mice became too exhausted to swim. After the mice too exhausted to swim were allowed to leave alone for 15 minutes, the blood glucose level was checked. […]. A blood glucose level was measured with time.

[6] = Ethanol metabolism in human (ND), sample intake before ethanol: blood levels; format: in vivo; settings: for blood ethanol level: human ALDH2*1/2 (ND), 3 mg/kg caffeine and/or 30 mg/kg serine orally 1 h before 0.4 g/kg ethanol, 30-180 minutes, vs control; for blood acetaldehyde level: human ND, 3 mg/kg caffeine and/or 30 mg/kg serine 1 h before 0.4 g/kg ethanol
Protocol: The subjects were asked to have no food and water from wake-up time to participate in the test. A control test was performed by 8 persons (as volunteers). Of the 8 persons participated in the control test, 5 persons were chosen to perform a sample administration test. […] . One hour after the sample intake, 5% ethanol solution (white liquor diluted with water) was divided into 6 portions and orally taken 6 times at the intervals of 4 minutes so as to take 0.4 g ethanol per a body weight (kg). Blood was taken immediately before alcohol drinking, 30, 60, 90, 120, and 180 minutes after alcohol drinking. Immediately upon taking blood, blood was mixed with a solution containing 0.6N perchlorate and 0.9% NaCl, and centrifugally separated at 3000 rpm for 20 minutes to remove protein. The ethanol, acetaldehyde and acetate concentrations of the supernatant were measured by gas chromatography manufactured by Perkin Elmer Corporation or Shimazu Corporation (Eriksson C J P et al., Anal. Biochem. Vol. 125, 259-263 (1982)). […] Furthermore, using the same plasma, blood lactate and pyruvate levels were measured by use of determiner LA (Kyowa Medics, Tokyo, Japan) and determiner PA (Kyowa Medics), respectively. Based on the ratio of lactate/pyruvate, the ratio of NADH/NAD^+ was calculated. On the other hand, at the same time of taking blood, 9-rank subjective evaluation was performed by the subjects with respect to “feeling of drunk” (by scores 0 to 8) and comfortable feeling (uncomfortable (score −4) to comfortable (score 4)).

[7] = tested on: serine dehydratase (SDS); experiment: Liver mRNA expression after caffeine administration (RT-PCR), SDS; settings: rats, 100 mg/kg caffeine orally, two hours, corrected on housekeeping gene P0
[8] = Dissolution of serine in non-sugar coffee; settings: 100, 500, 1000, 1500 and 2000 mg serine in 100 ml coffee
[9] = Blood ethanol in rats, sample administered after ethanol; settings: 10 mg/kg caffeine and/or 100 mg/kg serine orally 1 h after ethanol 2 g/kg, blood five hours after ethanol, vs control
[10] = rat, in vivo; cited from earlier work
[11] = Blood ethanol in rats, caffeine + each of 20 amino acids; settings: 0.1 g/kg amino acid together with 20 mg/kg caffeine 1 h before ethanol 2 g/kg, blood two hours after ethanol
Text: One hour after the administration of each sample, ethanol (2 g/kg body weight) was orally administered. After further two hours, blood was taken from the aorta abdominalis under anesthesia with pentobarbital (Sigma).

Structure (SMILES)	blood ethanol level [1]	blood glucose level [2]	blood ethanol level [3]	amount needed to significantly reduce the blood ethanol level [4] [mg/kg body weight]	blood glucose level: recovery from hypoglycemia at the time of fatigue [5]	blood ethanol level [6]	blood acetaldehyde level [6]	mRNA expression level of SDS in liver [7]	dissolution in non-sugar coffee [8]	relative blood ethanol concentration [9]	acute half lethal dose [10] [g/kg body weight]	relative blood ethanol level compared to the caffeine-only group (regarded as 1) [11]
Cn1c(=O)c2c(ncn2C)n(C)c1=O [caffeine, 3,7-dihydro-1,3,7-trimethyl-1H-purine-2,6-dione, reference compound]	significantly decreased 2 hours after ethanol administration; however, a significant effect was not observed in other time point	increasing a blood glucose level	A slight downward tendency was observed in the caffeine administration group, but it is not significant change	300	recovered from hypoglycemia	rarely changed	did not significantly change	metabolism of serine and tryptophan was enhanced	–	–	–	–
N[C@@H](CO)C(=O)O [serine]	slightly decreased compared to the control group; however, this change observed in the all measurement time points had not a significance	–	–	–	recovered from hypoglycemia	rarely changed	did not significantly change	–	easily dissolved in non-sugar coffee without any appearance problem such as precipitation and turbidity	A slight downward tendency was observed in the serine single administration group compared to the control group, but it was not significant change	14	blood ethanol reduction effect was observed
N[C@@H](Cc1c[nH]c2ccccc12)C(=O)O [tryptophan]	–	–	No change was observed	–	–	–	–	–	–	–	–	blood ethanol reduction effect was observed
